Results from patent US8586568B2, “Methods and products for treatment of diseases” (Ampio Pharmaceuticals, Inc., priority 2005, dated 2013).
Read-outs that look alike come from different tables or passages of the source.

Columns and labels:
HUVEC cells [1] = assay: Trilostane III effect on HUVEC cell proliferation (Celltiter 96 Aqueous One); assay type: cell-based, Human; conditions: for mean OD: 5% FCS, blank subtracted; for OD 1: replicate 1; for OD 2: replicate 2; for OD 3: replicate 3; for inhibition at 100 µM: Homo sapiens, HUVEC, read-out: inhibition of cultures (cell proliferation)
Protocol: 2. Medium was aspirated and the cells were then washed two times with 37° C. HBSS.
4. Cells were again washed to times with warm HBSS and then Celltiter reagent in EGM-2 with 0.1% FCS was added.
5. After 4 hours in culture the OD of each well was determine at 470 nm.
6. Repeat steps 4 and 5 for each time point.
Results are presented as mean OD of samples performed in triplicate (n=3) with mean blank OD subtracted. HUVEC 8750 cells were used for this experiment with 98% viability by trypan blue exclusion at time of seeding. […] The raw data are shown in Table 2 below and depicted graphically in FIG. 2.

[2] = system: Human umbilical vein endothelial cells 7016 (HUVEC); assay: Invasion chamber: fetal calf serum induced endothelial cell invasion through matrigel treated inserts (trilostane III); conditions: for Mean FU: 5% FCS in bottom chamber, 24 hours, background subtracted, n=3
Protocol: 1. Trypsinized HUVEC cells from flasks grown in Cambrex EGM-2 media to 70-80% confluence were washed two times with 37° C. EGM-2 with 0.1% FCS.
2. Cell suspensions containing 30,000 cells and compounds in EGM-2 0.1% FCS were added to the upper chamber of inserts.
3. EGM-2 containing 5% FCS was added to the bottom chamber and then incubated for 24 hours at 37° C. and 5% CO2.
4. Non-invading cells were removed from the upper chamber with cotton swab and the inserts were washed two times with 37° C. HBSS.
5. Inserts were then placed in wells containing 10 μM Calcein AM in HBSS.
6. Following four hours at 37° C. and 5% CO2, fluorescence was measured at 485 nm excitation and 595 nm emission.
Results are presented as mean fluorescent units (FU) in triplicate (n=3) with background fluorescence subtracted. […] To determine background invasion, nil inserts were included in triplicate that had EGM-2 with 0.1% FCS added to the bottom chamber.

HUVEC cells [3] = assay: Trilostane III tube formation assay in extracellular matrix gel; assay type: cell-based, Human; conditions: 50 μM, 18 hours
Protocol: 1. […] EGM-2 with 0.1% FCS.
2. Cell suspensions containing 10,000 cells and compounds in both EGM-2 0.1% and 5% FCS were added per well then incubated for 18 hours at 37° C. and 5% CO2.
3. Following incubation, tube formations were photographed under microscope.
Passage 3 HUVEC 8750 cells were used for this experiment at 98% viability by trypan blue exclusion at time of seeding.

HUVEC cells [4] = assay: Danazol BioCoat Matrigel Invasion Chamber; assay type: cell-based, Human; conditions: 5% FCS in bottom chamber, 24 hours
Protocol: BioCoat Matrigel Invasion Chambers were purchased from BD Biosciences (San Jose, Calif.). Inserts were rehydrated at 37° C. with 500 μl HBSS for 2 hours prior to use in humidified incubator. Trypsinized HUVEC cells were washed twice with warm EGM-2 containing 0.1% FCS and added to the upper chamber of the invasion insert at 100,000 cells in a total volume of 250 μl. Danazol and control compounds were added to the upper reservoir at final concentrations of 10 μM and 100 μM. 750 μl EGM-2 supplemented with 5% FCS was added to the bottom chamber to initiate invasion and the plates were incubated for 24 hours. Non-invasive cells were removed from the upper chamber with moistened cotton swabs and then the inserts were washed twice with HBSS. The inserts were then submerged in 10 μM calcein AM prepared in HBSS and incubated for 4 hours. Fluorescence was determined in a microplate reader at 485 nm excitation and 595 nm emission.
All data is presented as representative experiment done in triplicate. Differences between subsets were analyzed using student t-test in Microsoft Excel. P<0.05 was considered statistically significant.

HUVEC cells [5] = assay: Danazol effect on HUVEC cell proliferation (Celltiter 96 AQueous One); assay type: cell-based, Human; conditions: for OD: OD±standard deviation
Protocol: Primary HUVEC and EGM-2 growth medium were obtained from Cambrex (Walkersville, Md.). The cells were passaged in medium supplemented with 2% fetal calf serum (FCS) in tissue culture flasks at 37° C. and 5% CO2. Subculturing was performed using trypsin when 60-80% confluence was obtained as specified by the supplier.
Cryopreserved ampoules of passage 2 HUVEC cells were thawed and plated in 96 well tissue culture plates at 5,000 cells/cm^2. A 50 mM stock solution of danazol was prepared in ethanol and the FCS in the medium was increased to 5% to keep danazol in solution. The cells were treated with medium containing final concentrations of danazol ranging from 0.1 to 100 μM in triplicates. 24, 48, and 72 hour incubations were performed and cell proliferation was determined utilizing Celltiter 96 AQueous One Solution Cell Proliferation assay from Promega (Madison, Wis.). In short, medium was aspirated from each well and the cells were washed with 200 μl […] buffered saline (HBSS) from Cambrex warmed to 37° C. 100 μl diluted celltiter solution (15 μl stock+85 μl EGM-2 containing 0.1% FCS) were added to each well and incubated for an additional 4 hours. Optical density was determined by microplate reader using a 530 nm filter after blank subtraction and data presented as OD±standard deviation. The final concentration of ethanol in the wells was less then 0.2% and had no effect on cell proliferation or viability.
All data are presented as representative experiment done in triplicate. Differences between subsets were analyzed using student t-test in Microsoft Excel. P<0.05 was considered statistically significant.

HUVEC cells [6] = assay: Danazol Endothelial Cell Tube Formation Assay on matrigel plugs; assay type: cell-based, Human; conditions: 5% FCS, 18 hours
Protocol: To investigate the formation of capillary-like structures by HUVEC cells, the Angiogenesis System Endothelial Cell Tube Formation Assay was purchased from BD Biosciences (San Jose, Calif.) and used according to the manufacturers protocol. In brief, 100,000 HUVEC cells were seeded onto rehydrated matrigel plugs in 96 well tissue culture plates in the presence of 5% FCS to induce tube formation. […] After 18 hours the wells were photographed using a Kodak DCS Pro SLR/N digital camera (Rochester, N.Y.) mounted on an inverted microscope. Ethanol treated wells were included to determine if the vehicle had any effects on cell differentiation.

[7] = Homo sapiens, HUVEC, 24 h, read-out: percent inhibition of proliferation
[8] = Homo sapiens, HUVEC, 48 h, read-out: percent inhibition of proliferation
[9] = Homo sapiens, HUVEC, 72 h, read-out: percent inhibition of proliferation

## C[C@]12CCC3C(CC[C@@]45O[C@@H]4C4ON=CC4C[C@]35C)C1CC[C@@H]2O (stereo partly shown) [trilostane III]
HUVEC cells [1]; 0.1 uM, 24 hour
  mean OD: 0.3873
  OD 1: 0.362
  OD 2: 0.368
  OD 3: 0.432
HUVEC cells [1]; 0.1 uM, 48 hour
  mean OD: 0.656
  OD 1: 0.575
  OD 2: 0.698
  OD 3: 0.695
HUVEC cells [1]; 0.1 uM, 72 hour
  mean OD: 0.9187
  OD 1: 0.733
  OD 2: 0.962
  OD 3: 1.061
HUVEC cells [1]; 1 uM, 24 hour
  mean OD: 0.311
  OD 1: 0.284
  OD 2: 0.328
  OD 3: 0.321
HUVEC cells [1]; 1 uM, 48 hour
  mean OD: 0.4347
  OD 1: 0.358
  OD 2: 0.489
  OD 3: 0.457
HUVEC cells [1]; 1 uM, 72 hour
  mean OD: 0.3877
  OD 1: 0.387
  OD 2: 0.437
  OD 3: 0.339
HUVEC cells [1]; 10 uM, 24 hour
  mean OD: 0.2467
  OD 1: 0.18
  OD 2: 0.267
  OD 3: 0.293
HUVEC cells [1]; 10 uM, 48 hour
  mean OD: 0.203
  OD 1: 0.159
  OD 2: 0.208
  OD 3: 0.242
HUVEC cells [1]; 10 uM, 72 hour
  mean OD: 0.072
  OD 1: 0.031
  OD 2: 0.095
  OD 3: 0.09
HUVEC cells [1]; 100 uM, 24 hour
  mean OD: 0.2787
  OD 1: 0.235
  OD 2: 0.334
  OD 3: 0.267
HUVEC cells [1]; 100 uM, 48 hour
  mean OD: 0.2147
  OD 1: 0.17
  OD 2: 0.23
  OD 3: 0.244
HUVEC cells [1]; 100 uM, 72 hour
  mean OD: 0.108
  OD 1: 0.092
  OD 2: 0.119
  OD 3: 0.113
HUVEC cells [1]; 24 hours
  lowest concentration with statistically relevant decrease in cell proliferation: 1 µM
  inhibition at 100 µM: 33%
HUVEC cells [1]; 48 hours
  inhibition at 100 µM: 67%
HUVEC cells [1]; 72 hours
  inhibition at 100 µM: 90%
HUVEC cells [1]; all wells, even highest doses after 72 hours in culture
  cell viability under inverted microscope: Viable cells were visible in all wells
[2]; high dose (50 μM), 5% FCS induced invasion
  effect on endothelial cell invasion: dropped the levels back to background
HUVEC cells [3]; in the presence of 5% fetal calf serum
  tube formation: greatly reduced tube formation
HUVEC cells [3]; without added 5% FCS (nil wells, 0.1% FCS)
  tube formation: decrease in branching, vacuole formation, and increase in satellite cells

## 2α-cyano-4α,5α-epoxyandrostan-17β-ol-3-one [trilostane]
[2]; 25 μM
  Mean FU: 11212.3 FU
[2]; 50 μM
  Mean FU: 9101.33 FU

## C#C[C@]1(O)CC[C@H]2[C@@H]3CCC4=Cc5oncc5C[C@]4(C)[C@H]3CC[C@@]21C [danazol, 17α-pregna-2,4-dien-20-yno[2,3-d]-isoxazol-17β-ol]
HUVEC cells [4]; 10 μM
  effect on cell invasion: had no effect
HUVEC cells [4]; 100 μM
  effect on cell invasion: had no effect
HUVEC cells [5]; 0.1 μM, 72 hours
  OD: 0.798±0.037
HUVEC cells [5]; 1 μM, 48 hours
  OD: 0.378±0.037
HUVEC cells [5]; 1 μM, 72 hours
  OD: 0.484±0.022
HUVEC cells [5]; 10 μM, 24 hours
  OD: 0.288±0.037
HUVEC cells [5]; 10 μM, 48 hours
  OD: 0.241±0.012
HUVEC cells [5]; 10 μM, 72 hours
  OD: 0.229±0.016
HUVEC cells [5]; 100 μM, 24 hours
  OD: 0.162±0.017
HUVEC cells [5]; 100 μM, 48 hours
  OD: 0.19±0.033
HUVEC cells [5]; 100 μM, 72 hours
  OD: 0.156±0.018
HUVEC cells [5]; 100 μM, all time points
  effect on cell proliferation: complete arrest of cell proliferation
HUVEC cells [5]; 48 hours
  concentration at which inhibition was significant: approximately 1 μM
HUVEC cells [5]; [7]
  inhibition at 10 µM: 30%
  inhibition at 100 µM: 65%
HUVEC cells [5]; [8]
  inhibition at 1 µM: 40%
  inhibition at 10 µM: 61%
  inhibition at 100 µM: 70%
HUVEC cells [5]; [9]
  inhibition at 0.1 µM: 28%
  inhibition at 1 µM: 57%
  inhibition at 10 µM: 80%
  inhibition at 100 µM: 86%
HUVEC cells [6]; 50 μM
  tube formation: isolated colonies of HUVEC located in the plug with very few, thin connections or vessel lumen spaces
HUVEC cells [6]; danazol 1-50 μM
  tube formation: fewer organized structures with thin and less defined interconnections than controls
